According to patent US4906468A, “Insulin activity messengers, their antibodies, and thereof” (priority 1986, dated 1990):

Tests used:
BC3 Hl cells = test: Incorporation of radiolabel into water soluble products (SAX HPLC Peaks I and II), insulin treated cells; type: cell-based, murine; conditions: 10 nM insulin
Experimental: BC3 Hl cells were cultured at 37° C. in Dubelco's Minimal Essential Medium in the presence of 20% NU serum (Collaborative Research) on collagen coated 10 mm miniwells. Cells (1×10^6 /well) were preincubated with 10 μCi A) [2,6^3 H]myoinositol or B) [1,6^3 H]glucosamine (New England Nuclear) for 20 hours in the presence of 20% Nu Serum. Insulin was added to cells in monolayer in serum free media at a final concentration of 10 nM. Reactions were terminated by removal of media and addition of 1 ml chloroform/methanol/IN HCl (200:100:1), followed by addition of 0.5 ml 10 mM formic acid. Organic and aqueous phases were separated by centrifugation at 500×g for 5 min.
The water soluble labeled products were purified by a modification of a previously described protocol for purification of cAMP phosphodiesterase (PDE) modulators. The aqueous phases were chromatographed on DEAE-Cellulose, eluted with 0.25 TEA-formate, pH 3.75. This fraction was eluted through a C-18 reversed phase sepak in the same buffer. Following lyophilization, the solution was eluted through Dowex 50WX-4 in 50 mM TEA-formate. pH 3.0. […] One ml fractions were counted. The two peaks of insulin stimulated radioactivity coeluted with similarly purified, myocyte derived PDE modulating activities. […]

[1] = test system: low Km cAMP phosphodiesterase (PDE) from rat adipocyte particulate fraction; test: Generation of PDE messenger from liver membranes; extracts assayed for modulation of cAMP phosphodiesterase; type: biochemical
Experimental: These were generated from bovine liver particulate fractions by a modification of previously described methods. Particulate fraction was prepared from 100 g of bovine liver, and suspended in […] ammonium bicarbonate, pH 7.4. (Buffer A) at a final concentration of 2-4 mg protein/ml. This solution was incubated with 10 mM for 10 min at 37° C., acidified to pH 4.0 with formic acid and sedimented at 45,000 g for 20 min. An equal volume of chloroform/methanol (2:1) was added to the supernatant, and the upper phase was aspirated and methanol was evaporated.
In the tests the results of which are tabulated above, liver membranes were treated as indicated for 10 min at 37° C., centrifuged and supernatants were extracted and purified up to and including the Dowex 50WX-4 step as described earlier herein under "Experimental Procedures". Partially purified extracts were assayed for ability to modulate cAMP phosphodiesterase. Basal activity was 56.2 pmoles/mg protein^-1 -min^-1.

[2] = test system: phosphatidic acid in BC3 Hl myocytes; test: Phosphatidic acid production, [^3 H]myristic acid labeled myocytes; type: cell-based, murine; conditions: insulin, by 5 minutes
Experimental: (§1) Myocytes were incubated for 20 hrs. in serum free DMEM with [9,10^3 H] myristic acid (New England Nuclear), complexed 1:1 to bovine serum albumin. Insulin was added to cells in fresh media for the designated intervals, and reactions were stopped by removal of media and addition of 1 ml chloroform/methanol/IN HCl (200:100:1). 0.6 ml H2 O was added and upper aqueous phases were discarded following centrifugation at 500×g for 5 minutes. The lower, organic phases were dried under N2 and resuspended in 1 ml diethyl ether followed by addition of 1 […]. The upper ether phase was aspirated and the lower phase reextracted with 1 ml diethyl ether. The combined ether phases, containing diacylglycerol, were dried under N2, resuspended in chloroform and spotted on silica gel G plates which were preactivated at 60° C. for 1 hr. Plates were twice developed in petroleum ether/diethyl ether/glacia acetic acid (70:30:2). […] Lipids were scraped and radioactivity determined in a liquid scintillation counter.
(§2) The phosphodiesteratic cleavage of a phospolipid by insulin should also be reflected by increased production of diacylglycerol, which could serve as substrate for a diglyceride kinase, producing phosphatidic acid. Myocytes were preincubated with [^3 H]myristic acid and both diacylglycerol and phosphatidic acid labeling were evaluated by thin layer chromatography (FIG. 6).

[3] = test system: diacylglycerol in BC3 Hl myocytes; test: Diacylglycerol production, [^3 H]myristic acid labeled myocytes; type: cell-based, murine; conditions: insulin
Experimental: as §1, §2

pyruvate dehydrogenase = test: Production of pyruvate dehydrogenase modulating activity in crude extracts of plasma membrane derived supernatants; type: biochemical
polyphosphoinositides = conditions: cited from earlier work
[4] = test system: glycolipid precursor in BC3 Hl cells; test: Radiolabel in glycolipid precursor (TLC), insulin treated cells; type: cell-based, murine
Experimental: (A) [^3 H]inositol and (B) [^3 H]glucosamine labeled cells were treated with or without 10 nM insulin. Following extraction and phase separation, the organic phase were dried under N2, resuspended in chloroform/methanol/H2 O (9:7:2); and spotted on oxalate impregnated Silica gel G plates. These were twice developed in chloroform/acetone/methanol/glacial acetic acid/H2 O (10:4:2:2:1). One cm regions were scraped and radioactivity determined by scintillation counting. Phosphoinositides were identified by iodine staining of standards.
Cells prelabeled with [^3 H]inositol were treated with 10 nM insulin for the designated intervals. Cells were extracted and phase separated as detailed in FIG. 7. Aqueous phases were chromatographed up to and including the SAX HPLC step (upper panel). Results reflect counts from a combination of Peaks I and II. The ratio of counts in these peaks were unchanged over the time course. The precursor residing in the organic phases was identified by the peak on TLC with an Rf =0.22, corresponding to the species depleted by PI-PLC (FIG. 10).

## Insulin: Monocomponent bovine insulin from Wellcome Laboratores
BC3 Hl cells
  incorporation of [^3 H]inositol into two peaks (I and II): increased the incorporation of [^3 H]inositol into two peaks
BC3 Hl cells; 30 sec, Peaks I and II combined
  percent of maximal effect on production of [^3 H]inositol containing products: Seventy
[1]; after partial purification
  stimulation of PDE modulating activity / increase in production of messengers from membranes: 4 fold
[1]; extracts of liver membranes treated 10 min at 37° C., 1.0 nM insulin, 1.0 μg/ml PI-PLC, basal 56.2
  PDE Activity: 138.0 pmol mg protein^-1 min^-1
[2]
  increase in levels of [^3 H]myristate phosphatidic acid: 2 fold
[3]; by 5-10 minutes
  maximal increase in labeled diacylglycerol over basal: 50%
[3]; by 2 minutes
  labeled diacylglycerol level: near basal levels
Pyruvate dehydrogenase
  production of pyruvate dehydrogenase modulating activity: enhanced
polyphosphoinositides
  hydrolysis of polyphosphoinositides: does not stimulate hydrolysis of polyphosphoinositides
[4]; 10 nM insulin
  time course of [^3 H]inositol incorporation into the precursor: biphasic
[4]; 10 nM insulin, 30 sec
  decrease in [^3 H]inositol counts in precursor: 20%
[4]; 10 nM insulin, after 30 sec
  increase in [^3 H]inositol radioactivity in precursor over control levels: 60%
[4]; insulin dependent
  time of hydrolysis of the putative glycolipid precursor and appearance of the products: less than 1 min
[4]; insulin, 10 min
  increase in incorporation of [^3 H]glucosamine in precursor peak: approximately 40%
  increase in incorporation of [^3 H]inositol in precursor peak: approximately 40%
  labeling of other lipids: no significant change
[4]; intact cells
  radioactivity in precursor: rapidly diminished
